Test results published in ChEMBL document CHEMBL5465560, “Selectivity Literature for EUbOPEN Chemogenomic Library” (2024).

What was measured:
[1] = biological target: T1, Serine/threonine-protein kinase 17A (Homo sapiens) (UniProt Q9UEE5); experiment: Selectivity interaction (Kinase panel (DSF assay)) EUB0001489b STK17A
T1 sequence (whole entry): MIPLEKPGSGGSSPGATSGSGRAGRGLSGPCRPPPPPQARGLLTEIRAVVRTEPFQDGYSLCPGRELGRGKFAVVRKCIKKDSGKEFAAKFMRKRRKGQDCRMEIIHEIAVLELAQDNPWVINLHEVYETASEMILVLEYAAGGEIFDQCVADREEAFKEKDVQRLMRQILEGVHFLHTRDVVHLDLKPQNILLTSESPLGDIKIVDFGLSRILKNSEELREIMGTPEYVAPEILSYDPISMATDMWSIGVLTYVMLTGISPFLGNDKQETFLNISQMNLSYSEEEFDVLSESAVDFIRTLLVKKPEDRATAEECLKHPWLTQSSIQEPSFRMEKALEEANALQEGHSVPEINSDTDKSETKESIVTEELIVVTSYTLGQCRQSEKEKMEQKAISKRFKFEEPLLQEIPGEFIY

[2] = biological target: T2, Mitogen-activated protein kinase kinase kinase kinase 2 (Homo sapiens) (UniProt Q12851); experiment: Selectivity interaction (Kinase panel (literature)) EUB0001199aCl MAP4K2; conditions: at 1 µM
T2 sequence (whole entry): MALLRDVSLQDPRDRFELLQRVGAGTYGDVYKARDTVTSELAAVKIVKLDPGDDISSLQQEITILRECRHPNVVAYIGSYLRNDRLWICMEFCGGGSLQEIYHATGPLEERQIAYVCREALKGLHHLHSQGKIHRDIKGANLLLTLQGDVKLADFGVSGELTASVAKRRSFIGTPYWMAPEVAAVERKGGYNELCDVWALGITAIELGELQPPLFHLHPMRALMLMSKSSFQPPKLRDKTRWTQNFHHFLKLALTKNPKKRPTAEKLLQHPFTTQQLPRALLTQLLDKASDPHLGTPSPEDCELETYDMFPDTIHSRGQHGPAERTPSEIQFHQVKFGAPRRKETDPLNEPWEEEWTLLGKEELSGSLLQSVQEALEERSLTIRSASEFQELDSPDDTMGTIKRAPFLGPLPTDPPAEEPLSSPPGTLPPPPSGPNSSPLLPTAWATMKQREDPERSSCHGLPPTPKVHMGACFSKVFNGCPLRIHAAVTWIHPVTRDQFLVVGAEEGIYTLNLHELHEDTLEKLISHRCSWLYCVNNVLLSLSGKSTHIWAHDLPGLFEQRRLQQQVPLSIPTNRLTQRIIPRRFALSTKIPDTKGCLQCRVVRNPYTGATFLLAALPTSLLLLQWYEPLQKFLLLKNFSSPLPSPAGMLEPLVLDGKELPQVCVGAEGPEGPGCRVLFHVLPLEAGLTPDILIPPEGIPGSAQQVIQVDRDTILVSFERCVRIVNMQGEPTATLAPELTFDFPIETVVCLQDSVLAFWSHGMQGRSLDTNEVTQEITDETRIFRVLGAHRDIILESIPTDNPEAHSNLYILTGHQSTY

[3] = biological target: Serine/threonine-protein kinase PAK 6 (Homo sapiens) (UniProt Q9NQU5); experiment: Selectivity interaction (KinomeScan (DiscoverX)) EUB0001079a PAK6; conditions: at 1 µM
[4] = biological target: Ephrin type-A receptor 7 (Homo sapiens) (UniProt Q15375); experiment: Selectivity interaction (KinomeScan (DiscoverX)) EUB0000618a EPHA7; conditions: at 10 µM
Chain of Ephrin type-A receptor 7 (Homo sapiens) (Q15375 28-998 limits assumed): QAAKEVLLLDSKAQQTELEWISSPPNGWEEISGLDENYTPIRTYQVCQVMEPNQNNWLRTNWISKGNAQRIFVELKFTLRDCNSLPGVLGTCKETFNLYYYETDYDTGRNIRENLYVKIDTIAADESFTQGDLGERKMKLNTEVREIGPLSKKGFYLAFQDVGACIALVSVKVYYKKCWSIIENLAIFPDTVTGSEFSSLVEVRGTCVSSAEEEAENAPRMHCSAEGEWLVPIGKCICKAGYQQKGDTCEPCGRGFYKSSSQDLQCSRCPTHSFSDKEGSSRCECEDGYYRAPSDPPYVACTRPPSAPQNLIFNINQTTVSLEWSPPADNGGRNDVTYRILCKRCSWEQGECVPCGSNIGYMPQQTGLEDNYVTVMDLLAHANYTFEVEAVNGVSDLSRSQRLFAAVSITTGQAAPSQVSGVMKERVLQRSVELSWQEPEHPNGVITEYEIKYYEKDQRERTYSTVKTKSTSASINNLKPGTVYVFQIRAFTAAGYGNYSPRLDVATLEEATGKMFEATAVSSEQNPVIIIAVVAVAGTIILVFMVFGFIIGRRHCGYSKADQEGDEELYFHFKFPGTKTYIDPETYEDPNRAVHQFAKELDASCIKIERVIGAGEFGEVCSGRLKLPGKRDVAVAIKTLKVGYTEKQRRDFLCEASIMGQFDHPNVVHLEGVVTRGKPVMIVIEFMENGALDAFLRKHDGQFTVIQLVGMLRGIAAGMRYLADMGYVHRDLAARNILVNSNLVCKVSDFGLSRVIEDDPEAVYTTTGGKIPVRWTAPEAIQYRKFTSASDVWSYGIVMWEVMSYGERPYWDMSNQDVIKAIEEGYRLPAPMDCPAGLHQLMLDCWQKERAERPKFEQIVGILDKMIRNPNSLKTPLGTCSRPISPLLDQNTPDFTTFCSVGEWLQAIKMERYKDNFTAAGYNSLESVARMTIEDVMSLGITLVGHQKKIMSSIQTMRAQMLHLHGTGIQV

[5] = biological target: Tyrosine-protein kinase SYK (Homo sapiens, UniProt P43405); experiment: Selectivity interaction (ActivX KiNativ screen (ex vivo kinase selectivity in human PBMCs)) EUB0001619a SYK; assay type: cell-based; conditions: PBMC, at 1 µM
[6] = biological target: Phosphatidylinositol 4-kinase beta (Homo sapiens, UniProt Q9UBF8); experiment: Selectivity interaction (KinomeScan (DiscoverX)) EUB0000045b PI4KB
Chain of Phosphatidylinositol 4-kinase beta (Q9UBF8 2-816 limits assumed): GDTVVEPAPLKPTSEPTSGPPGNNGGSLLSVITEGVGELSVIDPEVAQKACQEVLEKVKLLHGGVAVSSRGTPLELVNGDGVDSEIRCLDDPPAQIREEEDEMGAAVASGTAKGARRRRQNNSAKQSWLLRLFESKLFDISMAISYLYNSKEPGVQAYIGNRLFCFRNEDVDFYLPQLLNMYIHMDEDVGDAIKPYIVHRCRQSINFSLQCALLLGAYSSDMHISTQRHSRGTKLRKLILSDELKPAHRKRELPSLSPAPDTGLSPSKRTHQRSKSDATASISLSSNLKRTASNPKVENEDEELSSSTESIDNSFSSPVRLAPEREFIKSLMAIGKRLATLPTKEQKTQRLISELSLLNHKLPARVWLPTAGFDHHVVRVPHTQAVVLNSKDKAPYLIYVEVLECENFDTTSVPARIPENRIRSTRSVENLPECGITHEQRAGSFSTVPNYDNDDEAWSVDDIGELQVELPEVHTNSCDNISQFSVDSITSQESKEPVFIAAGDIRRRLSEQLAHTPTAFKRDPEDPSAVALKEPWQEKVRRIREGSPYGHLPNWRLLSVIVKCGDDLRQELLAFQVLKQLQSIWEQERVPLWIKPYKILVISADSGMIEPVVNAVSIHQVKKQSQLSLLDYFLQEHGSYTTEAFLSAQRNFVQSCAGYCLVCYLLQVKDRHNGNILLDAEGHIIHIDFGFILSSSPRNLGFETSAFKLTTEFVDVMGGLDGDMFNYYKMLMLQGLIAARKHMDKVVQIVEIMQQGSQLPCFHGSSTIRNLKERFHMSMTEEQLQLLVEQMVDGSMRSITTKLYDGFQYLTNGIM

[7] = biological target: Activin receptor type-2B (Homo sapiens) (UniProt Q13705); conditions: at 10 µM
[8] = biological target: Serine/threonine-protein kinase WNK1 (Homo sapiens) (UniProt Q9H4A3); experiment: Selectivity interaction (ActivX KiNativ screen (kinase selectivity in THP-1 cell lysates)) EUB0000639a WNK1; assay type: subcellular; conditions: lysate, at 0.01 µM
Chain of Serine/threonine-protein kinase WNK1 (Homo sapiens) (Q9H4A3 whole entry, looked up): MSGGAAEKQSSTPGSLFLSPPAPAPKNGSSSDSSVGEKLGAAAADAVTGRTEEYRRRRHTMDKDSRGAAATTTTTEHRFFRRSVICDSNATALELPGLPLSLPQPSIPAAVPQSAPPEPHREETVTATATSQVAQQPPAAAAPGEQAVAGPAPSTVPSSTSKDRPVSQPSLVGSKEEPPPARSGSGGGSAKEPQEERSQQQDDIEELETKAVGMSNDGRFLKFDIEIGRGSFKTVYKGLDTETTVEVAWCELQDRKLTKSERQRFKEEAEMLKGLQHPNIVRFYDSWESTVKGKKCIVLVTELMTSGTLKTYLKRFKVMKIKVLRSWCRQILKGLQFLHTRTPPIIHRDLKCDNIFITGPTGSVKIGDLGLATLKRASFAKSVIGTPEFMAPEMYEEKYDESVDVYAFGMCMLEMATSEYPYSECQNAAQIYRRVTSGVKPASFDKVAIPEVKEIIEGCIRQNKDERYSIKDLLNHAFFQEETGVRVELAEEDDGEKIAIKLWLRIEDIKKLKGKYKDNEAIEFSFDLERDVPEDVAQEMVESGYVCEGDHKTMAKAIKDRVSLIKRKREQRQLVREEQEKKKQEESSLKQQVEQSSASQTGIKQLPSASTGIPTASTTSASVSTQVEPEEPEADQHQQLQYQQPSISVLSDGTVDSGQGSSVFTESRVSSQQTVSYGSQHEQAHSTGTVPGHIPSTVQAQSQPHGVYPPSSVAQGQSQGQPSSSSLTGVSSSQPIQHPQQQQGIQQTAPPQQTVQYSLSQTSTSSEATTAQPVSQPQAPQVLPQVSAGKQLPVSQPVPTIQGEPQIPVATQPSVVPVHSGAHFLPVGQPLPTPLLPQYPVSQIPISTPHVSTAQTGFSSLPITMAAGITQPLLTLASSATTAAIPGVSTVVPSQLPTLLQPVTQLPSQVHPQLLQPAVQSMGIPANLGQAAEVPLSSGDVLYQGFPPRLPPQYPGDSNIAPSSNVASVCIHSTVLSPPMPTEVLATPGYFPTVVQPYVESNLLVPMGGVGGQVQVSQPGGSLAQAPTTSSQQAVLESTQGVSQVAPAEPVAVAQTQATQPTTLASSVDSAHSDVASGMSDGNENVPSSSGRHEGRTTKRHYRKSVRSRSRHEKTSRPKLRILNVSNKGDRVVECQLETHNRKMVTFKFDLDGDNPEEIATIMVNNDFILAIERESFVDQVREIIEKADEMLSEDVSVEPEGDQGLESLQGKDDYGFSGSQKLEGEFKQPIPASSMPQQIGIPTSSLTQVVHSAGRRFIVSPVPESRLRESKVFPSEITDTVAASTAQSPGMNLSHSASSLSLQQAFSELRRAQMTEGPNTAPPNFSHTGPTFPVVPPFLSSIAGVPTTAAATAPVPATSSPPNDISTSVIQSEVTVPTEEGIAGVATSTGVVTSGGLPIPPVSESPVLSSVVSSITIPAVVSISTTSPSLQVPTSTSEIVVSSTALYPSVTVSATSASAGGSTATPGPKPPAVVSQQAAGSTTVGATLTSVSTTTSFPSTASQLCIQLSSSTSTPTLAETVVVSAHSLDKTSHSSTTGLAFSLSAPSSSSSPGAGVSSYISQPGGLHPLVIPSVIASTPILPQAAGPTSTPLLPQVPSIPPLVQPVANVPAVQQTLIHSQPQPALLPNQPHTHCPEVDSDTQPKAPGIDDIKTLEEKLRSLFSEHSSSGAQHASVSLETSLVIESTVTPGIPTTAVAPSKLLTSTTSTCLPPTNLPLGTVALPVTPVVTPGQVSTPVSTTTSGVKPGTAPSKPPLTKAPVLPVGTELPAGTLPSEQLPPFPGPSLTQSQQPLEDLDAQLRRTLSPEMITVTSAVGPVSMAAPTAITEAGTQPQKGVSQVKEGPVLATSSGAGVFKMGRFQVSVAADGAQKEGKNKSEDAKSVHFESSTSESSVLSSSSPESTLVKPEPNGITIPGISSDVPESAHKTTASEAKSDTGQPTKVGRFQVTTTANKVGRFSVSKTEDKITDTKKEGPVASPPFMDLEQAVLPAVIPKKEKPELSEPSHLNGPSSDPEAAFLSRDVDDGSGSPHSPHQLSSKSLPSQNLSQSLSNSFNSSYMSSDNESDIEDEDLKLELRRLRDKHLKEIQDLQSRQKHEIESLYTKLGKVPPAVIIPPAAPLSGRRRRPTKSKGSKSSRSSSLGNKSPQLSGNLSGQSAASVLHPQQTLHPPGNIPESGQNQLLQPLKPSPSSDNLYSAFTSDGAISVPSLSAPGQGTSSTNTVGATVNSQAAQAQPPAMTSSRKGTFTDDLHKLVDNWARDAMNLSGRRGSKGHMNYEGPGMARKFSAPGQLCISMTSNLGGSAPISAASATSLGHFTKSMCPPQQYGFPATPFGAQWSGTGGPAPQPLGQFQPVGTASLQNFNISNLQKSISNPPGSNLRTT

[9] = biological target: Mitogen-activated protein kinase 14 (Homo sapiens, UniProt Q16539); experiment: Selectivity interaction (Kinase panel (Invitrogen)) EUB0000639a MAPK14; conditions: at 200 nM
[10] = biological target: T3, Interleukin-1 receptor-associated kinase 3 (Homo sapiens) (UniProt Q9Y616); experiment: Selectivity interaction (KinomeScan (DiscoverX)) EUB0000229b IRAK3; conditions: at 10 µM
T3 sequence (whole entry): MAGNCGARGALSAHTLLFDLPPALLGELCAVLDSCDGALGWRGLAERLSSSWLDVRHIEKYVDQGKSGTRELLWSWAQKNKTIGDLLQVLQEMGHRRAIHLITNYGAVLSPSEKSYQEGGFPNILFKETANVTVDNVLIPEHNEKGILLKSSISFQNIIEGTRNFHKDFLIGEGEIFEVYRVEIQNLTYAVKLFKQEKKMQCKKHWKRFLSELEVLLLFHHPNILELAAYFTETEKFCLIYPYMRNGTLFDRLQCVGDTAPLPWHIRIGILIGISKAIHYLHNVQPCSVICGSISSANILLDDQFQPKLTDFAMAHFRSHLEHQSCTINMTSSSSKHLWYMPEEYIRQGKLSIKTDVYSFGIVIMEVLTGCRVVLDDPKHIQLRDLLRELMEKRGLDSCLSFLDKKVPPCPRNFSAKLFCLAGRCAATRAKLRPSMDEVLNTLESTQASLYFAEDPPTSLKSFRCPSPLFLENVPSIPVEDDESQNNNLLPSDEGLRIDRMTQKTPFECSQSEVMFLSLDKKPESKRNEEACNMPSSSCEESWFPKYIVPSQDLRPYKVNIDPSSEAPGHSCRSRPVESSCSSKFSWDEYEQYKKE

Histamine H1 receptor = Histamine H1 receptor (Homo sapiens, UniProt P35367); experiment: Selectivity interaction (Histamine H1 receptor assay, human recombinant ) EUB0000877a HRH1
Histamine H3 receptor = Histamine H3 receptor (Homo sapiens, UniProt Q9Y5N1); experiment: Selectivity interaction (Human histamine H3 receptor binding assay ) EUB0000877a HRH3
[11] = biological target: cGMP-inhibited 3',5'-cyclic phosphodiesterase 3A (Homo sapiens, UniProt Q14432); experiment: Selectivity interaction (Phosphodiesterase 3 from human platelets ) EUB0000877a PDE3A; assay type: cell-based, Platelet
[12] = biological target: Tyrosine-protein kinase Lck (Homo sapiens, UniProt P06239); experiment: Selectivity interaction (KinomeScan (DiscoverX)) EUB0000666a LCK; conditions: at 10 µM
Chain of Tyrosine-protein kinase Lck (P06239 2-509 limits assumed): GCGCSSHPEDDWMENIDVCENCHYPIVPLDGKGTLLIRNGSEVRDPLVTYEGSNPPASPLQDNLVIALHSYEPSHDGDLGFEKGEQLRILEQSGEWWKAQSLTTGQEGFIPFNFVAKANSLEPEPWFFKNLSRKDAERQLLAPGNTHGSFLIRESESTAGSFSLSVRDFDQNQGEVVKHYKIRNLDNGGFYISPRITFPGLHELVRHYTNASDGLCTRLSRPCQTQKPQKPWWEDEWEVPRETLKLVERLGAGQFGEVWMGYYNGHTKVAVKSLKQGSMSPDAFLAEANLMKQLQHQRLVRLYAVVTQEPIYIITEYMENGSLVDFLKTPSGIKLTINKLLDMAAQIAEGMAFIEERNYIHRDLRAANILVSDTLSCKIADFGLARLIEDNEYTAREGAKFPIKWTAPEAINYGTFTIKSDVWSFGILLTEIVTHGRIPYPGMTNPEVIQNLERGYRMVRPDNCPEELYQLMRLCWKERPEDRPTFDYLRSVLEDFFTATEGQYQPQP

[13] = biological target: Dual specificity protein kinase CLK2 (Homo sapiens, UniProt P49760); experiment: Selectivity interaction (Enzymatic assay) EUB0001550a CLK2
[14] = biological target: Glycogen synthase kinase-3 beta (Homo sapiens, UniProt P49841); experiment: Selectivity interaction (KinomeScan (DiscoverX)) EUB0000695a GSK3B; conditions: at 100 nM
Chain of Glycogen synthase kinase-3 beta (P49841 whole entry, looked up): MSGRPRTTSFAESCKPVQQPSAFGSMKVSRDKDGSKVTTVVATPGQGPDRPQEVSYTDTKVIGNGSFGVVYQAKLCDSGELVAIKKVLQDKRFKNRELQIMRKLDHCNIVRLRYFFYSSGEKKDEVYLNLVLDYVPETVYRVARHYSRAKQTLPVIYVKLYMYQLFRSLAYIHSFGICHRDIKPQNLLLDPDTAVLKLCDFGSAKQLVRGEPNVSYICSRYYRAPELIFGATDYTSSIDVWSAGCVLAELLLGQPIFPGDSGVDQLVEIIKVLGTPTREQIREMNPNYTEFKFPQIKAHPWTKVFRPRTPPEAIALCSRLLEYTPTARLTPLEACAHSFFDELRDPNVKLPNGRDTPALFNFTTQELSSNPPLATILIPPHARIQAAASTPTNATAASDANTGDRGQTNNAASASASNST

For CN1CCN(C(=O)c2ccc3cc2OCCOCCNc2ccn4ncc-3c4n2)CC1, which dTM [1] is on record?
Its dTM is 1.5 K.

Which % of inhibition [2] does the source give for CN1Cc2nccc(-c3cn(C)nc3-c3ccc(F)cc3)c2C1=O here?
The % of inhibition was 4%.

How did the % of control [3] turn out when Nc1cnc(N2CCc3cc(S(=O)(=O)Nc4c(F)cc(Cl)cc4F)cc(N4CCCC4=O)c32)nc1 [TP-020n] was run?
The % of control was 100%.

Which % of control [4] does the source give for O[C@H]1CC[C@H](Nc2ncc3nc(Nc4c(F)cc(F)cc4F)n([C@H]4CCOC4)c3n2)CC1 here?
Its % of control is 100%.

For N#Cc1cccc(-c2c[nH]c3ncnc(N4CCOCC4)c23)c1, which % of inhibition [5] is on record?
Its % of inhibition is 6%.

With C=CC(=O)Nc1cc(-n2c(=O)ccc3cnc4ccc(-c5ccc(NS(C)(=O)=O)cc5)cc4c32)ccc1C as the compound, how does the % of control ([6]; at 1 µM) read?
Its % of control is 79%.

And the % of control ([6]; at 10 µM)?
The % of control was 20%.

How did the % of control [7] turn out when Cc1cc([C@@H](C)Nc2ccccc2C(=O)O)c2nc(N3CCOCC3)cc(=O)n2c1 [AZD-6482] was run?
Its % of control is 100%.

For CC[C@@H]1[C@H](F)C(=O)N[C@@H]1COc1nccc2cc(C(N)=O)c(OC)cc12 [ZIMLOVISERTIB], which % of inhibition [8] is on record?
Its % of inhibition is 3.3%.

What about the % of inhibition [9] of the same compound?
Its % of inhibition is 18.3%.

For COc1cc(N(C)c2ccnc3ccc(C(F)(F)F)cc23)cc(OC)c1OC, which % binding [10] is on record?
The % binding was 0%.

Which results are given for CCC(=O)N1CC[C@H](Nc2ncnc3c2CN(c2cnc(OC)c(C(F)(F)F)c2)CC3)C1 [LENIOLISIB]?
IC50 (Histamine H1 receptor): > 30 µM; IC50 (Histamine H3 receptor): > 30 µM; IC50 [11]: > 30 µM

O=C(NOC[C@H](O)CO)c1ccc(F)c(F)c1Nc1ccc(I)cc1F was tested. Which % of control [12] did it give?
Its % of control is 88%.

For CN(C)CC#Cc1ccc2[nH]c3c(c2c1)-c1nc(N)ncc1CCC3, which IC50 [13] is on record?
Its IC50 is 0.29 µM.

For Cc1cc(F)c(C(=O)Nc2cccc(-c3nncn3C(C)C)n2)cc1-n1cnc(C2CC2)c1, which % of control [14] is on record?
The % of control was 100%.
